PMC12386934, “Characteristics and Potential of KSL, KSL-W, and Dadapin-1 Antimicrobial Peptides for Preventing Infections of Orthopedic Prosthetic Devices: Identifying the Most Robust Candidate” (International Journal of Molecular Sciences, 2025)
Where a SMILES comes first, the peptide text is derived from it.

Test system: MG63 cells co-cultured with S. aureus ATCC 25923
Experiment: Suppression of S. aureus cytotoxicity in co-culture, LDH assay
Format: cell-based, human
Settings: MG63 co-cultured with S. aureus ATCC 25923, 24 h, lowest concentration tested
Experimental: KSL-W was the peptide selected to investigate the efficacy in suppressing the cytotoxicity of S. aureus ATCC 25923 on osteoblast-like MG63 cells. S. aureus ATCC 25923 was thawed from the frozen stock and plated on MHA and incubated at 37 °C for 24 h.
A suspension of MG63 cells was prepared in complete DMEM at a concentration of 5 × 10^4 cells/mL. A total of 100 µL of cell suspension was added to each well of a 96-well cell culture-treated plate (137101, Nunclon Delta Black Microwell, ThermoScientific, Thermo Fisher Scientific, Segrate, Italy). After cell seeding, the plate was incubated for a day at 37 °C under standard culture conditions. […]
Cytotoxicity was assessed by measuring the release of lactate dehydrogenase (LDH) from damaged cells by the LDH Cytotoxicity Assay (ab197004, Abcam, Cambridge, UK), strictly following the instructions of the manufacturer. […] After 10 min shaking, the plate was read in fluorescence (excitation: 535 nm; emission 587 nm) by an Infinite 200 PRO mod. M PLEX multifunction plate reader (Tecan Group Ltd., Männedorf, Switzerland). […]
Data in relative fluorescence units (RFU) from the investigation on KSL-W suppression of S. aureus cytotoxicity were processed as follows. The mean of the duplicate readings from each single treated well was calculated. […]

CC(C)[C@H](NC(=O)[C@H](Cc1c[nH]c2ccccc12)NC(=O)[C@H](Cc1ccccc1)NC(=O)[C@@H](NC(=O)[C@@H](NC(=O)[C@H](CCCCN)NC(=O)[C@@H](N)CCCCN)C(C)C)C(C)C)C(=O)N[C@@H](CCCCN)C(=O)N[C@@H](Cc1ccccc1)C(=O)N[C@@H](CCCCN)C(=O)O [KSL-W] (H-KKVVFWVKFK-OH)
concentration completely suppressing cytotoxicity due to S. aureus: 75 µg/mL
